Reference: patent US10065950B2, “Substituted thiazoles as HIV integrase inhibitors” (Japan Tobacco Inc., priority 2010, dated 2018)

biological target: HIV-1 pNL4-3 integrase (Human immunodeficiency virus type 1 group M subtype B (isolate NY5) (HIV-1), UniProt P12497); assay: Determination of enzyme (HIV integrase) inhibitory activity; type: biochemical; conditions: calculated from inhibition rate (fluorescence)
Method: The following explains evaluation methods of the HIV integrase inhibitory activity of the compound of the present invention.
A full-length gene sequence (Accession No.: M19921) of HIV-1 pNL4-3 integrase was inserted into restriction enzyme Nde I and Xho I sites of plasmid pET21a(+) (manufactured by Novagen) to construct an integrase expression vector pET21a-IN-Wild type.
Escherichia coli recombinant BL21(DE3) transformed with plasmid pET21a-IN-Wild type obtained in (i) was shake cultured at 30° C. in a liquid medium containing ampicillin. When the culture reached the logarithmic growth phase, isopropyl-β-D-thiogalactopyranoside was added to promote expression of integrase gene. The culture was continued for 5 hr to promote accumulation of the integrase protein. The recombinant E. coli was collected in pellets by centrifugal separation and preserved at −80° C.
This Escherichia coli was suspended in Lysis buffer (50 mM Tris-HCl (pH 7.6), 10 mM MgCl2, 5 mM DTT), and disrupted by repeating treatments of pressurization and depressurization, and insoluble fraction was collected by centrifugation at 4° C., 18,000 rpm for 60 min. This was suspended in Lysis buffer containing a protease inhibitor, […] and 10 mM CHAPS were added, and the mixture was stirred at 4° C. for 30 min. Water-soluble fraction was collected by centrifugation at 4° C., 9,000 rpm for 30 min. The obtained fraction was diluted with a column buffer (50 mM Tris-HCl (pH 7.6), 1 mM DTT, 10% Glycerol, 10 mM CHAPS) to 5-fold, and the mixture was applied to heparin column (HiPrep 16/10 Heparin FF column: manufactured by GE Healthcare Bio-Sciences). Using a column buffer containing 1M NaCl, a protein was eluted with 0-1M NaCl concentration gradient, and an eluted fraction containing an integrase protein was collected. The obtained fraction was diluted 5-fold with a column buffer (50 mM Tris-HCl (pH 7.6), 1 mM DTT, 10% Glycerol, 10 mM CHAPS), and the mixture was applied to cation exchange column (Mono-S column: manufactured by GE Healthcare Bio-Sciences). Using a column buffer containing 1M NaCl, a protein was eluted with 0-1M NaCl concentration gradient, and an eluted fraction containing an integrase protein was collected. The obtained fractions of the integrase protein were collected, and preserved at −80° C.
The following DNA synthesized by FASMAC was dissolved in TE buffer (10 mM Tris-hydrochloric acid (pH 8.0), 1 mM EDTA) and mixed with donor DNA, target DNA, and each complementary strand (+ and − strands) to 1 μM. The mixture was heated at 95° C. for 5 min, 80° C. for 10 min, 70° C. for 10 min, 60° C. for 10 min, 50° C. for 10 min and 40° C. for 10 min and kept at 25° C. to give a double stranded DNA, which was used for the test.
Donor DNA (+strand having biotin attached to the 5′ terminal)
Target DNA (+, − strands both having digoxigenin attached to the 3′ terminal)
The donor DNA was diluted with TE buffer to 20 nM, of which 50 μL was added to each well of streptavidin-coated black plate (manufactured by PIAS Corporation) and allowed to adsorb at 37° C. for 20 min. The plate was washed with phosphate buffer (Dulbecco's PBS, Sanko Junyaku Co., Ltd.) containing 0.1% Tween 20 and phosphate buffer. Then, an enzyme reaction mixture (70 μL), a test substance (10 μL) diluted with the enzyme reaction mixture and 0.75 μM integrase protein (10 μL) were added to each well and the mixture was reacted at 37° C. for 60 min. composition of enzyme reaction mixture: 30 mM MOPS (3-morpholinopropanesulfonic acid), 5 mM magnesium chloride, 3 mM DTT (dithiothreitol), 0.1 mg/mL BSA (bovine serum albumin), 5% glycerol, 10% DMSO (dimethyl sulfoxide), 0.01% Tween 20.
Then, 25 nM target DNA (10 μL) was added, and the mixture was reacted at 37° C. for 20 min and washed with phosphate buffer containing 0.1% Tween 20 to stop the reaction. […]

Structure (SMILES) | IC50
COCC1(C)CN(C(C)C)C(=O)c2c(O)c(=O)c(-c3ncc(Cc4ccc(F)cc4F)s3)cn21 (stereo not drawn) [Example 121] | 16 nM
COCCOCC1(C)CN(C(C)C)C(=O)c2c(O)c(=O)c(-c3ncc(Cc4ccc(F)cc4F)s3)cn21 (stereo not drawn) [Example 122] | 19 nM
COCCOC[C@H]1CN(CC(C)(C)C)C(=O)c2c(O)c(=O)c(-c3nnc(Cc4ccc(F)cc4)s3)cn21 [Example 123] | 27 nM
COCCOC[C@H]1CN(CC(C)(C)C)C(=O)c2c(O)c(=O)c(-c3nnc(Cc4ccc(F)cc4F)s3)cn21 [Example 124] | 15 nM
CCN1C[C@H](COCCOC)n2cc(-c3nnc(Cc4ccc(F)cc4F)s3)c(=O)c(O)c2C1=O [Example 125] | 11 nM
COC[C@@H]1Cn2cc(-c3nnc(Cc4ccc(F)cc4F)s3)c(=O)c(O)c2C(=O)N1CC1CC1 [Example 126] | 7.3 nM
CCN1C[C@@H](COCCOC)n2cc(-c3nnc(Cc4ccc(F)cc4F)s3)c(=O)c(O)c2C1=O [Example 127] | 14 nM
CCN1C[C@@H](COCCOC)n2cc(-c3nnc(Cc4ccc(F)cc4)s3)c(=O)c(O)c2C1=O [Example 128] | 19 nM
COCCOC[C@@H]1Cn2cc(-c3nnc(Cc4ccc(F)cc4F)s3)c(=O)c(O)c2C(=O)N1CC(C)(C)C [Example 129] | 12 nM
CCN1C(=O)c2c(O)c(=O)c(-c3nnc(Cc4ccc(F)cc4F)s3)cn2C[C@@H]1COCCOC [Example 130] | 13 nM
COC[C@H]1CN(C(C)(C)C)C(=O)c2c(O)c(=O)c(-c3nnc(Cc4ccc(F)cc4F)s3)cn21 [Example 131] | 13 nM
CC(C)N1C[C@@H](C)n2cc(-c3nnc(Cc4ccc(F)cc4F)s3)c(=O)c(O)c2C1=O [Example 132] | 9.1 nM
CC(C)N1C(=O)c2c(O)c(=O)c(-c3nnc(Cc4ccc(F)cc4F)s3)cn2C[C@H]1CO [Example 133] | 7.4 nM
COCCOC[C@H]1CN(C(C)C)C(=O)c2c(O)c(=O)c(-c3nnc(Cc4ccc(F)cc4F)s3)cn21 [Example 134] | 16 nM
CC[C@H](C)N1C[C@H](COC)n2cc(-c3nnc(Cc4ccc(F)cc4F)s3)c(=O)c(O)c2C1=O [Example 135] | 12 nM
COC[C@H]1CN([C@@H](C)C(C)C)C(=O)c2c(O)c(=O)c(-c3nnc(Cc4ccc(F)cc4F)s3)cn21 [Example 136] | 11 nM
CC(=O)NC[C@@H]1Cn2cc(-c3nnc(Cc4ccc(F)cc4F)s3)c(=O)c(O)c2C(=O)N1C(C)C [Example 137] | 8.6 nM
CC(C)N1C(=O)c2c(O)c(=O)c(-c3nnc(Cc4ccc(F)cc4F)s3)cn2C[C@H]1CNC(=O)C(C)(C)C [Example 138] | 11 nM
CC(=O)N(C)CC1(C)CN(C(C)C)C(=O)c2c(O)c(=O)c(-c3ncc(Cc4ccc(F)cc4F)s3)cn21 (stereo not drawn) [Example 139] | 12 nM
CC(=O)NC[C@H]1Cn2cc(-c3nnc(Cc4ccc(F)cc4F)s3)c(=O)c(O)c2C(=O)N1C(C)C [Example 140] | 5.8 nM
CCOC[C@H]1CN(C(C)C)C(=O)c2c(O)c(=O)c(-c3ncc(Cc4ccc(F)cc4)s3)cn21 [Example 141] | 8 nM
CCOC[C@H]1CN(C(C)C)C(=O)c2c(O)c(=O)c(-c3nnc(Cc4ccc(F)cc4F)s3)cn21 [Example 142] | 6.4 nM
CCOCCOC[C@H]1CN(C(C)C)C(=O)c2c(O)c(=O)c(-c3nnc(Cc4ccc(F)cc4F)s3)cn21 [Example 143] | 6.9 nM
COC[C@H]1CN(C(C)C)C(=O)c2c(O)c(=O)c(-c3nnc(Cc4ccc(F)c(F)c4)s3)cn21 [Example 144] | 7.7 nM
CCC(C)N1C(=O)c2c(O)c(=O)c(-c3nnc(Cc4ccc(F)cc4F)s3)cn2C[C@H]1COC (stereo partly drawn) [Example 145] | 5.6 nM
CCC(C)N1C(=O)c2c(O)c(=O)c(-c3nnc(Cc4ccc(F)cc4F)s3)cn2C[C@H]1COC (stereo partly drawn) [Example 146] | 5.9 nM

Structure (SMILES) | IC50
CC[C@@H](C)N1C[C@H](COC)n2cc(-c3nnc(Cc4ccc(F)cc4F)s3)c(=O)c(O)c2C1=O [Example 147] | 8.3 nM
COC[C@H]1CN([C@H](C)C(C)C)C(=O)c2c(O)c(=O)c(-c3nnc(Cc4ccc(F)cc4F)s3)cn21 [Example 148] | 9.8 nM
CC(C)N1C[C@H](C)n2cc(-c3nnc(Cc4ccc(F)cc4F)s3)c(=O)c(O)c2C1=O [Example 149] | 5.9 nM
COC[C@@H]1Cn2cc(-c3nnc(Cc4ccc(F)c(F)c4)s3)c(=O)c(O)c2C(=O)N1C(C)C [Example 150] | 6.1 nM
CC(=O)CC1CN(C(C)C)C(=O)c2c(O)c(=O)c(-c3ncc(Cc4ccc(F)cc4F)s3)cn21 (stereo not drawn) [Example 151] | 5.4 nM
CC(C)N1CC(C)(C(=O)N(C)C)n2cc(-c3ncc(Cc4ccc(F)cc4F)s3)c(=O)c(O)c2C1=O (stereo not drawn) [Example 152] | 5.9 nM
CCNC(=O)C1(C)CN(C)C(=O)c2c(O)c(=O)c(-c3ncc(Cc4ccc(F)cc4F)s3)cn21 (stereo not drawn) [Example 153] | 5.8 nM
CC(C)N1C(=O)c2c(O)c(=O)c(-c3nnc(Cc4ccc(F)cc4F)s3)cn2C[C@H]1CN(C)S(C)(=O)=O [Example 154] | 7.3 nM
COCCOC[C@H]1CN(C(C)C)C(=O)c2c(O)c(=O)c(-c3nnc(Cc4ccc(F)c(F)c4)s3)cn21 [Example 155] | 10 nM
CC(C)N1C(=O)c2c(O)c(=O)c(-c3nnc(Cc4ccc(F)cc4F)s3)cn2C[C@H]1C [Example 156] | 4.6 nM
CC(C)N1CC(C)(C(=O)N(C)C)n2cc(-c3nnc(Cc4ccc(F)c(F)c4)s3)c(=O)c(O)c2C1=O (stereo not drawn) [Example 157] | 29 nM
CC(C)N1C(=O)c2c(O)c(=O)c(-c3nnc(Cc4ccc(F)cc4F)s3)cn2C[C@H]1CNS(C)(=O)=O [Example 158] | 5.4 nM
CC(C)C(=O)N(C)C[C@@H]1Cn2cc(-c3nnc(Cc4ccc(F)cc4F)s3)c(=O)c(O)c2C(=O)N1C(C)C [Example 159] | 6.6 nM
CNC(=O)C1CN(C)C(=O)c2c(O)c(=O)c(-c3ncc(Cc4ccc(F)cc4F)s3)cn21 (stereo not drawn) [Example 160] | 6.1 nM
CCN(C)C(=O)C1(C)CN(C)C(=O)c2c(O)c(=O)c(-c3ncc(Cc4ccc(F)cc4F)s3)cn21 (stereo not drawn) [Example 161] | 7.8 nM
CCNC(=O)C1(C)CN(CC)C(=O)c2c(O)c(=O)c(-c3ncc(Cc4ccc(F)cc4F)s3)cn21 (stereo not drawn) [Example 162] | 7.1 nM
CC(=O)N(C)C[C@@H]1Cn2cc(-c3nnc(Cc4ccc(F)cc4)s3)c(=O)c(O)c2C(=O)N1C(C)C [Example 163] | 7.7 nM
CN(C)C(=O)CC1CN(C2CC2)C(=O)c2c(O)c(=O)c(-c3ncc(Cc4ccc(F)cc4F)s3)cn21 (stereo not drawn) [Example 164] | 6.5 nM
CCNC(=O)CC1CN(C2CC2)C(=O)c2c(O)c(=O)c(-c3ncc(Cc4ccc(F)cc4F)s3)cn21 (stereo not drawn) [Example 165] | 7.4 nM
CC[C@H](C)N1C[C@@H](COC)n2cc(-c3nnc(Cc4ccc(F)cc4)s3)c(=O)c(O)c2C1=O [Example 166] | 12 nM
CC[C@@H](C)N1C[C@@H](COC)n2cc(-c3nnc(Cc4ccc(F)cc4)s3)c(=O)c(O)c2C1=O [Example 167] | 10 nM
COC[C@@H]1Cn2cc(-c3ncc(Cc4ccc(F)cc4F)s3)c(=O)c(O)c2C(=O)N1C(C)C [Example 168] | 5.8 nM
CC(C)N1C[C@](C)(C(=O)N(C)C)n2cc(-c3nnc(Cc4ccc(F)cc4F)s3)c(=O)c(O)c2C1=O [Example 169] | 12 nM
CC(C)N1C[C@](C)(C(=O)N2CCCC2)n2cc(-c3nnc(Cc4ccc(F)cc4F)s3)c(=O)c(O)c2C1=O [Example 170] | 12 nM
CC(C)N1C[C@@](C)(C(=O)N(C)C)n2cc(-c3nnc(Cc4ccc(F)cc4F)s3)c(=O)c(O)c2C1=O [Example 171] | 16 nM
